# Measured values as given in patent US12178815B2, “Regimens for treating HIV infections and aids” (priority 2017, dated 2024).
# Where two headings read alike, the source gives them in different places.
# Experiments:
# [1] = tested on: virus with reverse transcriptase mutations K103N, E138G, and K238T and integrase mutation Q148R; test: Phenotypic resistance of virus from subject with protocol-defined virologic failure; design: species or system HIV-1; conditions: eight-week group subject, RT K103N
# wild-type HIV-1 = test: in vitro protein-adjusted 90% inhibitory concentration (PA-IC90); type: cell-based; conditions: against wild-type HIV-1
# [2] = LATTE-2 plasma pharmacokinetics (trough concentrations); type: in vivo, human; conditions: for C0 relative to in vitro PA-IC90 / C0 at 48 week: Week 48; for C0 at 48 week: human, plasma, im
# Procedure: Pharmacokinetic plasma concentrations following long-acting cabotegravir+rilpivirine administration are summarized using evaluable data that met sample collection window criteria, excluding samples affected by dosing errors (wrong dose) or oral bridging. Sampling windows for intramuscular dosing were set relative to the previous injection as follows: ±0.5 hours for two-hour postdose samples; ±one day for one-week postinjection visits; ±two days for predose samples in the four-week group, Weeks 4 and 8 cabotegravir samples in the eight-week group, and midcycle concentrations four weeks postinjection in the eight-week group; and ±four days for predose samples in the eight-week group (except for Weeks 4 and 8 cabotegravir samples, as described earlier).
# [3] = tested on: virus with mixture at integrase codon 269 (R269R/G); test: Susceptibility of virus from subject with protocol-defined virologic failure (integrase R269R/G); design: species or system HIV-1; conditions: eight-week group subject
structure (smiles),measurement,setting,value
Cc1cc(/C=C/C#N)cc(C)c1Nc1ccnc(Nc2ccc(C#N)cc2)n1 [rilpivirine],Phenotypic resistance/sensitivity of subject's virus,[1],phenotypic resistance
same,IC90,"wild-type HIV-1; Human immunodeficiency virus 1, read-out: in vitro PA-IC90",0.012 µg/mL
same,C0 relative to in vitro PA-IC90,[2]; eight-week IM LA,5 fold
same,C0 relative to in vitro PA-IC90,[2]; four-week IM LA,8 fold
same,C0 at 48 week,"[2]; four-week IM LA, read-out: geometric mean C0",94.6 ng/mL
same,Accumulation on repeated IM dosing,"[2]; through 48 weeks of dosing, both IM arms",Accumulation of rilpivirine was observed
Cc1ccnc2c1NC(=O)c1cccnc1N2C1CC1 [nevirapine],Phenotypic resistance/sensitivity of subject's virus,[1],phenotypic resistance
O=C1Nc2ccc(Cl)cc2[C@@](C#CC2CC2)(C(F)(F)F)O1 [efavirenz],Phenotypic resistance/sensitivity of subject's virus,[1],phenotypic resistance
C[C@@H]1CCO[C@H]2Cn3cc(C(=O)NCc4ccc(F)cc4F)c(=O)c(O)c3C(=O)N12 [dolutegravir],Phenotypic resistance/sensitivity of subject's virus,[1],sensitive
"C[C@H]1CO[C@@H]2Cn3cc(C(=O)NCc4ccc(F)cc4F)c(=O)c(O)c3C(=O)N12 [cabotegravir, (3S,11aR)—N-[(2,4-difluorophenyl)methyl]-2,3,5,7,11,11a-hexahydro-6-hydroxy-3-methyl-5,7-dioxo-oxazolo[3,2-a]pyrido[1,2-d] pyrazine-8-carboxamide]",Phenotypic resistance/sensitivity of subject's virus,[1],phenotypic resistance
same,IC90,"wild-type HIV-1; Human immunodeficiency virus 1, read-out: in vitro protein-adjusted 90% inhibitory concentration (PA-IC90)",0.166 µg/mL
same,C0 relative to in vitro PA-IC90,[2]; eight-week IM LA,9 fold
same,C0 relative to in vitro PA-IC90,[2]; four-week IM LA,16 fold
same,C0 relative to in vitro PA-IC90,[2]; oral 30 mg once daily,27 fold
same,C0 at 48 week,"[2]; eight-week IM LA, read-out: geometric mean trough concentration (C0)",1460 ng/mL
same,C0 at 48 week,"[2]; four-week IM LA, read-out: geometric mean trough concentration (C0)",2580 ng/mL
same,Effect of emergent integrase R269R/G mixture on susceptibility,[3],did not decrease
Cc1nnc(C(=O)NC(C)(C)c2nc(C(=O)NCc3ccc(F)cc3)c(O)c(=O)n2C)o1 [raltegravir],Phenotypic resistance/sensitivity of subject's virus,[1],phenotypic resistance
COc1cc2c(cc1Cc1cccc(Cl)c1F)c(=O)c(C(=O)O)cn2[C@H](CO)C(C)C [elvitegravir],Phenotypic resistance/sensitivity of subject's virus,[1],phenotypic resistance
